According to US11066668B2, “Compositions and methods for modulation of IKBKAP splicing” (Ionis Pharmaceuticals, Inc., priority 2012, dated 2021):
Entries after “also recorded” stand apart in the source; their conditions may differ. Oligonucleotides are written 5' to 3', each unit as a sugar letter and its base; * is a phosphorothioate linkage, no mark a phosphodiester; rarer units and linkages stand in square brackets, end groups in braces. Plain capitals give the bases only. e = 2'-O-(2-methoxyethyl) (MOE); [5mC] = 5-methylcytosine

How the values were obtained:
[1] = test system: IKBKAP mRNA in GM04899 fibroblasts; experiment: Exon 20 inclusion in FD patient skin fibroblast line GM04899 (RT-PCR); assay type: cell-based, human; conditions: for % inclusion of exon 20: Lipofectamine 2000, two days, relative to IMR90 cells (100%)
Experimental: To investigate the effect of ISIS 421992 on patient-derived fibroblasts, the patient skin fibroblast line GM04899 (Coriell Cell Repository) was utilized. The cell line was derived from an individual homozygous for the major FD mutation.
GM04899 was cultured in minimal essential medium (Invitrogen) supplemented with non-essential amino acids (Invitrogen) and 20% (v/v) fetal bovine serum. The cells were grown to 40-50% confluence in 10-cm dishes. Cells were transfected with 2 nM, 5 nM, 25 nM, or 125 nM concentrations of ISIS 421992 using 12 μL Lipofectamine 2000 transfection reagent (Invitrogen). Two days later, cDNA synthesized from total RNA extracted from HEK-293 cells was amplified using the forward primer pCDNAF and reverse primer sequence IKAP21R4 to assay the splicing pattern of expressed RNAs by RT-PCR. To calculate exon 20 inclusion levels, the PCR amplicons were labeled with α^32P-dCTP. The PCR products were then separated by native PAGE, followed by phosphorimage analysis. The band intensities were quantified and values were normalized for the G+C content according to the DNA sequence. Multiple lanes for each condition represent independent experiments.
A batch of cells was treated with solvent (NaOH) only of the kinetin solution as a control. RNA from IMR90, a wild-type normal diploid lung fibroblast cell line was used as positive control. The results are expressed as percent inclusion of exon 20 compared to the exon 20 inclusion (100%) of IKBKAP mRNA in IMR90 cells.

[2] = test system: IKBKAP pre-mRNA (mt19-21 minigene); experiment: Exon 20 inclusion in HEK-293 cells harboring the mt19-21 IKBKAP minigene (RT-PCR); assay type: cell-based, human; conditions: Table 2 (microwalk experiment); HEK-293 with mt19-21 minigene, 0.007 nmol oligonucleotide by electroporation, RT-PCR two days later
Summary of the method: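 HEK-293 cells carrying the mt19-21 IKBKAP minigene were electroporated with 0.007 nmol uniform 2′-MOE phosphate-backbone antisense oligonucleotide (15- or 20-mers, 5-methylcytosines). After two days, RT-PCR with α^32P-dCTP-labeled amplicons, native PAGE and phosphorimaging gave exon 20 inclusion, normalized for G+C content.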

Question: How did the “% inclusion of exon 20” value ([1]; GM04899, 2 nM) turn out when “ISIS 421992: uniform 2′-MOE 20-mer, phosphate backbone; GTCGCAAACAGTACAATGGC, SEQ ID NO 61, intron 20 (eGeTe[5mC]eGe[5mC]eAeAeAe[5mC]eAeGeTeAe[5mC]eAeAeTeGeGe[5mC])” was run?
Answer: 79%

Question: And the “% inclusion of exon 20” value ([1]; GM04899, 5 nM)?
Answer: 95%

Question: And the “% inclusion of exon 20” value ([1]; GM04899, 25 nM)?
Answer: 96%

Question: And the “% inclusion of exon 20” value ([1]; GM04899, 125 nM)?
Answer: 97%

Question: And the “effect on the splicing defect / full-length mRNA levels, in words” value ([1]; GM04899 fibroblasts)?
Answer: almost completely suppressed the splicing defect; also recorded: as effective as treatment with kinetin for 3 days in restoring full-length mRNA levels

Question: What about the “% inclusion (exon 20)” value [2] of the same substance?
Answer: 96%
